The values below come from article PMC4554999 (Bioorganic & medicinal chemistry, 2015).

For experiment [1], the system named is nicotine-induced antinociception. The experiment in a line: Antagonism of nicotine-induced antinociception, tail-flick test. The following applies: mice. In kind it is in vivo, mouse. On the technique in general: Thermal pain tests record how soon the animal reacts.
Experiment [2] has as its target rat α3β4-nAChR (Rattus norvegicus, UniProt P04757+P12392). The experiment in a line: Electrophysiology. The following applies: 100 μM compound; rat receptor in Xenopus oocytes. In kind it is cell-based.
In experiment [3] the target is α4β2*-nAChRs (Rattus norvegicus, UniProt P09483+P12390). The experiment in a line: biochemical. It counts as binding.
Chain of α4β2*-nAChRs (P09483 31-630): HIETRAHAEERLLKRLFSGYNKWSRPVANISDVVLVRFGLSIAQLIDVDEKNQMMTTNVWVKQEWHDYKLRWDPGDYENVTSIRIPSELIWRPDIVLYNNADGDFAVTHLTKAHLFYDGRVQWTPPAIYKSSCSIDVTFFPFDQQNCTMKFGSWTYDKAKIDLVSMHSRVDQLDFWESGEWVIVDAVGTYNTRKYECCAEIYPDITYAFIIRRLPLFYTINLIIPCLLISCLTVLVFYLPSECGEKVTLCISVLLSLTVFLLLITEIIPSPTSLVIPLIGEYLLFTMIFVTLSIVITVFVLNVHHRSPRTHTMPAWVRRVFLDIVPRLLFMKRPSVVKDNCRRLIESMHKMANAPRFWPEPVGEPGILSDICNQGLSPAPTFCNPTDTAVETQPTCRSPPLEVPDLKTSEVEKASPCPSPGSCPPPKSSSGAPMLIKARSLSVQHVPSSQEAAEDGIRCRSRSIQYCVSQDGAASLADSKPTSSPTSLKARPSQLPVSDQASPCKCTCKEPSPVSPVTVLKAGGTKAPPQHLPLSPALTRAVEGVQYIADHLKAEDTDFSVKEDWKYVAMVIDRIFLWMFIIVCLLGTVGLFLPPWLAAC
Chain of α4β2*-nAChRs (P12390 25-500): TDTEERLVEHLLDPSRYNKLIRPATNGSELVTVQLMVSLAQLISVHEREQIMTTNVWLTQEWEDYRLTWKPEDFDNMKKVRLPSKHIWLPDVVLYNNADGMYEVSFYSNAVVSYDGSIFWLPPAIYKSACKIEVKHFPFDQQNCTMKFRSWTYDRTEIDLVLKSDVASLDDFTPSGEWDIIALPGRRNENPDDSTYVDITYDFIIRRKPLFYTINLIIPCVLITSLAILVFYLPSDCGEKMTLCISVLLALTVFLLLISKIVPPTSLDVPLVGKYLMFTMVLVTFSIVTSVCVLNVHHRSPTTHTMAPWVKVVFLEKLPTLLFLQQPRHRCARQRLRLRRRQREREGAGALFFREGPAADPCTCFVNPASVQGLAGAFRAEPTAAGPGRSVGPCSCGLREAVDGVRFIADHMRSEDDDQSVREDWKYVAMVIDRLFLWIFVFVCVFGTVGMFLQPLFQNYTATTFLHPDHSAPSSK
Experiment [4] addresses T1, rat α7-nAChR (Rattus norvegicus, UniProt Q05941). It counts as cell-based.
Experiment [5] has as its target T1, rat α7-nAChR. The experiment in a line: cell-based. The following applies: read-out: antagonist activity at α7-nAChRs, % inhibition.
Experiment [6] has as its system mice. The following applies: agonist antinociception, ref [5]; cited from earlier work.
Experiment [7] concerns mice. The following applies: agonist antinociception, ref [5]; cited from earlier work. The source holds these as a separate data set.
Experiment [8] relates to mice. The following applies: ref [5]; cited from earlier work.
Experiment [9] has as its system mice. The following applies: Table 1, head line above prints AD50 (μg/kg), ref [5]; cited from earlier work.

Where two headings read alike, the source gives them in different places.

T1 sequence (Q05941 23-502): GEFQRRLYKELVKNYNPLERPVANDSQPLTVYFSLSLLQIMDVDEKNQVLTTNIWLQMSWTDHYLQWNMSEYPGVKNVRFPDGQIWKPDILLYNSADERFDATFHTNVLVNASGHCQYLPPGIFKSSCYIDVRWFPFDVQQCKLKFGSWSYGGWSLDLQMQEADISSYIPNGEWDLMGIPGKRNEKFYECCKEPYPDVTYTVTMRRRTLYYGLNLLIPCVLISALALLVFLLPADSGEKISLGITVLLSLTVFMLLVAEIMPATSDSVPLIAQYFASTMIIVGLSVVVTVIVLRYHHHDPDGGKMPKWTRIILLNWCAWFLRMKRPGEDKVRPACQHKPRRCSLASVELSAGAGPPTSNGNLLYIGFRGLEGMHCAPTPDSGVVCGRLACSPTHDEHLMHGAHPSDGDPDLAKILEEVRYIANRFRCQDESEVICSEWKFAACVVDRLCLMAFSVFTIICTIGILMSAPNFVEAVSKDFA
Chain of rat α3β4-nAChR (P04757 26-499): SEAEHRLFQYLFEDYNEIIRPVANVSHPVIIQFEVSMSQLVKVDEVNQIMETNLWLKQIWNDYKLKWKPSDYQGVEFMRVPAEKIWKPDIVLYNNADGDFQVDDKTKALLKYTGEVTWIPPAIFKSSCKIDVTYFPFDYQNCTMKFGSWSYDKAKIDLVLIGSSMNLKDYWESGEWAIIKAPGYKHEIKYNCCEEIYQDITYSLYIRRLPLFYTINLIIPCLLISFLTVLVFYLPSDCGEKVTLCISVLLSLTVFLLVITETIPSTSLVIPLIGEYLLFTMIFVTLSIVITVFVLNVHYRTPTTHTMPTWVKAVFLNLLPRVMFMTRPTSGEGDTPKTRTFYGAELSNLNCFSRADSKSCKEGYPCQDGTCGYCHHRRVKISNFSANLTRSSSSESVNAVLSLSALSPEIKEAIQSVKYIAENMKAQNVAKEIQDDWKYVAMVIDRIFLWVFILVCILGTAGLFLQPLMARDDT
Chain of rat α3β4-nAChR (P12392 21-495): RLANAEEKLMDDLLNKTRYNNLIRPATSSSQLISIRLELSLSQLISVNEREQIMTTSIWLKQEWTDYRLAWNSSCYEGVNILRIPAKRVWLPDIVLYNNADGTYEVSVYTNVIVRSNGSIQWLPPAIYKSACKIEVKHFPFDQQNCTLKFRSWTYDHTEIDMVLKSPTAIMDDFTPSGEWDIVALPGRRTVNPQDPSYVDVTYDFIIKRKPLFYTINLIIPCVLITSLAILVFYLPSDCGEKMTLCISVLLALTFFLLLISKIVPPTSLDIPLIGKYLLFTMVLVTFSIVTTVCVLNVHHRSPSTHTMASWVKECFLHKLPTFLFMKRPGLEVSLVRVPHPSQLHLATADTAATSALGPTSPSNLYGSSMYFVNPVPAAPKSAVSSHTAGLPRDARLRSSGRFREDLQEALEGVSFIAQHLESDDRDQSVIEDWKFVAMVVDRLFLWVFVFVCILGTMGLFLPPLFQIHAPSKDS

For the compound `c1cc(-c2cncc([C@H]3C[C@H]4CC[C@H]3N4)c2)ccn1` [Compound 5a, 2-exo-[3′-(Pyridin-4-yl)-5′-pyridnyl]-7-azabicyclo[2.2.1]heptane], the “AD50 Tail-Flick” value in experiment [1] is reported as 39 (4–63) μg/kg.
As to `Clc1cc(-c2cncc([C@H]3C[C@H]4CC[C@H]3N4)c2)ccn1` [Compound 5c, 2-exo-[3′-(2-Chloropyridin-4-yl)-5′-pyridnyl]-7-azabicyclo[2.2.1]heptane], the “AD50 Tail-Flick” value in experiment [1] is given as 110 (20–645) μg/kg.
On to `Nc1cc(-c2cncc([C@H]3C[C@H]4CC[C@H]3N4)c2)ccn1` [Compound 5d, 2-exo-[3′-(2-Aminopyridin-4-yl)-5′-pyridnyl]-7-azabicyclo[2.2.1]heptane], for which the “AD50 Tail-Flick” value in experiment [1] was 1 (0.13–1.4) μg/kg. For the same compound, the “Agonist Activity (% of max ACh at 100 μM) α3β4” value in experiment [2] was “little or no agonist activity”.
Turning to `COc1cc(-c2cncc([C@H]3C[C@H]4CC[C@H]3N4)c2)ccn1` [Compound 5e, 2-exo-[3′-(2-Methoxypyridin-4-yl)-5′-pyridnyl]-7-azabicyclo[2.2.1]heptane], in [1], the “AD50 Tail-Flick” value is 0.3 (0.04–20) μg/kg.
On to `c1cncc(-c2cncc([C@H]3C[C@H]4CC[C@H]3N4)c2)c1` [Compound 6a, 2-exo-[3′-(Pyridin-3″-yl)-5′-pyridnyl]-7-azabicyclo[2.2.1]heptane], for which the “AD50 Tail-Flick” value in [1] is reported as 0.68 (0.11–4) μg/kg. The compound further gave an inhibition constant Ki in experiment [3] of 0.12 nM.
For `Fc1ccc(-c2cncc([C@H]3C[C@H]4CC[C@H]3N4)c2)cn1` [Compound 6b, 2-exo-[3′-(2″-Fluoropyridin-5″-yl)-5′-pyridnyl]-7-azabicyclo[2.2.1]heptane], the “Agonist Activity (% of max ACh at 100 μM) α7” value in experiment [4] is recorded as “little or no agonist activity”.
Regarding `Clc1ccc(-c2cncc([C@H]3C[C@H]4CC[C@H]3N4)c2)cn1` [Compound 6c, 2-exo-[3′-(2″-Chloropyridin-5″-yl)-5′-pyridnyl]-7-azabicyclo[2.2.1]heptane], in experiment [1], the “AD50 Tail-Flick” value is 0.5 (0.05–4.7) μg/kg.
Regarding `Nc1ccc(-c2cncc([C@H]3C[C@H]4CC[C@H]3N4)c2)cn1` [Compound 6d, 2-exo-[3′-(2″-Aminopyridin-5″-yl)-5′-pyridnyl]-7-azabicyclo[2.2.1]heptane], in [1], the “AD50 Tail-Flick” value is 1.5 (0.5–4.1) μg/kg. In addition, the “Agonist Activity (% of max ACh at 100 μM) α3β4” value in experiment [2] is reported as “little or no agonist activity”.
Regarding `COc1ccc(-c2cncc([C@H]3C[C@H]4CC[C@H]3N4)c2)cn1` [Compound 6e, 2-exo-[3′-(2″-Methoxypyridin-5″-yl)-5′-pyridnyl]-7-azabicyclo[2.2.1]heptane], the “AD50 Tail-Flick” value in [1] is listed as 0.5 (0.05–4.7) μg/kg. Besides, in [4] (100 μM compound, rat receptor in Xenopus oocytes), the “Agonist Activity (% of max ACh at 100 μM) α7” value was “little or no agonist activity”. For the same compound, the inhibition at 100 µM in experiment [5] was above 80%.
For the compound `CN1CCC[C@H]1c1cccnc1` [nicotine], the “ED50 Tail-Flick” value in experiment [6] is given as 1.3 (0.5–1.8) mg/kg. For the same compound, in experiment [7], the “ED50 Hot-Plate” value is 0.65 (0.25–0.85) mg/kg. Moreover, in [8], the “ED50 Hypothermia” value is 1.0 (0.6–2.1) mg/kg. The “ED50 Spontaneous Activity” value in experiment [9] is 0.5 (0.15–0.78) μg/kg.

Broadly, the Ki is a measure of affinity in units of concentration, obtained from inhibition or displacement. In general, inhibition refers to the share of the control response that was lost under treatment.
